Test results reported in patent US10780090B2, “Heteroaryl compounds useful as inhibitors of SUMO activating enzyme” (Millennium Pharmaceuticals, Inc., priority 2014, dated 2020).

Biological target: recombinant human SAE enzyme (Homo sapiens (Human), UniProt Q9UBT2)
Assay: SAE HTRF enzyme assay
Type: biochemical
Conditions: for inhibition at 0.111 µM: read-out: Percent Inhibition
Summary of the method: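 This HTRF format monitors Sumo-Flag–Ubc9-GST thioester formation catalysed by 0.11 nM human SAE with 0.5 μM ATP over 105 min at 24° C. Inhibition is expressed at a single concentration or as IC50.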

[1] = SAE inhibition at compound concentration 0.111 μM
[2] = SAE inhibition, class symbols, legend in nM

Chain of recombinant human SAE enzyme (Q9UBT2 whole entry): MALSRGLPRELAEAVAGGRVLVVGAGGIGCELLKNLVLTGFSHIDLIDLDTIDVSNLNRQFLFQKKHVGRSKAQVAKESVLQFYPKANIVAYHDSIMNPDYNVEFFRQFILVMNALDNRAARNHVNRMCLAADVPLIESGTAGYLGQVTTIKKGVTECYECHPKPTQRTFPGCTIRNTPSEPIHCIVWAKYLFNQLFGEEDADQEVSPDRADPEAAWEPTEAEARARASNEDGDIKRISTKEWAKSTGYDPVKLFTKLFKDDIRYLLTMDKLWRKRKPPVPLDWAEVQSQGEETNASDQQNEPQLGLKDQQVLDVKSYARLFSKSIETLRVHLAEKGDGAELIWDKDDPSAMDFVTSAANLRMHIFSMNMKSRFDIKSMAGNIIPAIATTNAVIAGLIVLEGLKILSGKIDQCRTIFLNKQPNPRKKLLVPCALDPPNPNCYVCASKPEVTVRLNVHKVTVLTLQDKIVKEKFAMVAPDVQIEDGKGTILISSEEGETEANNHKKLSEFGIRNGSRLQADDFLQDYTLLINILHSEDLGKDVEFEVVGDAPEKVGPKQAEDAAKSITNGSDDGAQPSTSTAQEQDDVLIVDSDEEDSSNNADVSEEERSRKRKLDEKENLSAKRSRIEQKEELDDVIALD
Chain of recombinant human SAE enzyme (Q9UBE0 whole entry partner): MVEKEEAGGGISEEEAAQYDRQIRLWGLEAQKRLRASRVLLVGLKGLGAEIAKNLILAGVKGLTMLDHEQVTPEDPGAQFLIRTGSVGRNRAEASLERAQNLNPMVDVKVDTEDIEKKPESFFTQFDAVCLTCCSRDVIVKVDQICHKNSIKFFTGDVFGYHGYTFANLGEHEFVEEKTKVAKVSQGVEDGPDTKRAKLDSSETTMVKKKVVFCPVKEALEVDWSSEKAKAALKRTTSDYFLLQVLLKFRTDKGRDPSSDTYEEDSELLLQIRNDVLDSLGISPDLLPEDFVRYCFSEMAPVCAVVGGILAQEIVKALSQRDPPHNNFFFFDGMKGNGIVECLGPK

SMILES	Percent Inhibition (Concentration 0.111 μM)	IC50 (class symbols A/B/C) [nM]	inhibition at 0.111 µM (Concentration 0.111 μM) [%]	Percent Inhibition [1] [%]	IC50 [2] [nM]
CO[C@@H](c1cccc(Br)c1)c1csc(C(=O)c2cncnc2N[C@@H]2C[C@H](COS(N)(=O)=O)[C@@H](O)C2)c1 (single isomer, unassigned) [I-73a, [(1R,2S,4R)-4-{[({(4-[(S)-(3-Bromophenyl)(methoxy)methyl]-2-thienyl}carbonyl)pyrimidin-4-yl]amino}-2-hydroxycyclopentyl]methyl sulfamate or [(1R,2S,4R)-4-{[5-({4-[(R)-(3-Bromophenyl)(methoxy)methyl]-2-thienyl}carbonyl)pyrimidin-4-yl]amino}-2-hydroxycyclopentyl]methyl sulfamate]	98	< 10	–	–	–
NS(=O)(=O)OC[C@H]1C[C@@H](Nc2ncncc2C(=O)c2cc(Cn3cc(C(F)(F)F)cn3)cs2)C[C@@H]1O [I-130, [(1R,2S,4R)-2-hydroxy-4-({5-[(4-{[4-(trifluoromethyl)-1H-pyrazol-1-yl]methyl}-2-thienyl)carbonyl]pyrimidin-4-yl}amino)cyclopentyl]methyl sulfamate]	–	< 10	97	–	–
Cc1sc(C(=O)c2cncnc2N[C@@H]2C[C@H](COS(N)(=O)=O)[C@@H](O)C2)cc1[C@H](C)c1cccc(Cl)c1 (mixture of isomers) [I-135, [(1R,2S,4R)-4-{[5-({4-[(1R)-1-(3-chlorophenyl)ethyl]-5-methyl-2-thienyl}carbonyl)pyrimidin-4-yl]amino}-2-hydroxycyclopentyl]methyl sulfamate and [(1R,2S,4R)-4-{[5-({4-[(1S)-1-(3-chlorophenyl)ethyl]-5-methyl-2-thienyl}carbonyl)pyrimidin-4-yl]amino}-2-hydroxycyclopentyl]methyl sulfamate]	94	10 to 100	–	–	–
Cc1sc(C(=O)c2cncnc2N[C@@H]2C[C@H](COS(N)(=O)=O)[C@@H](O)C2)cc1C1OCCc2oc(Cl)cc21 (single isomer, unassigned) [I-298a, [(1R,2S,4R)-4-{[5-({4-[(4R)-2-chloro-6,7-dihydro-4H-furo[3,2-c]pyran-4-yl]-5-methyl-2-thienyl}carbonyl)pyrimidin-4-yl]amino}-2-hydroxycyclopentyl]methyl sulfamate or [(1R,2S,4R)-4-{[5-({4-[(4S)-2-chloro-6,7-dihydro-4H-furo[3,2-c]pyran-4-yl]-5-methyl-2-thienyl}carbonyl)pyrimidin-4-yl]amino}-2-hydroxycyclopentyl]methyl sulfamate]	–	–	–	34	100 to 1000
Cc1cccc(Cc2coc(C(=O)c3cncnc3N[C@@H]3C[C@H](COS(N)(=O)=O)[C@@H](O)C3)c2)c1 [I-57, [(1R,2S,4R)-2-hydroxy-4-({5-[4-(3-methylbenzyl)-2-furoyl]pyrimidin-4-yl}amino)cyclopentyl]methyl sulfamate]	–	–	98	–	–
NS(=O)(=O)OC[C@H]1C[C@@H](Nc2ncncc2C(=O)c2cc(COc3ccccc3OC(F)(F)F)cs2)C[C@@H]1O [I-176, [(1R,2S,4R)-2-hydroxy-4-({5-[(4-{[2-(trifluoromethoxy)phenoxy]methyl}-2-thienyl)carbonyl]pyrimidin-4-yl}amino)cyclopentyl]methyl sulfamate]	–	10 to 100	87	–	–
NS(=O)(=O)OC[C@H]1C[C@@H](Nc2ncncc2C(=O)c2cc([C@@H]3NCCCc4ccccc43)c(Cl)s2)C[C@@H]1O (mixture of isomers) [I-319, [(1R,2S,4R)-4-{[5-({5-chloro-4-[(1R)-2,3,4,5-tetrahydro-1H-2-benzazepin-1-yl]-2-thienyl}carbonyl)pyrimidin-4-yl]amino}-2-hydroxycyclopentyl]methyl sulfamate and [(1R,2S,4R)-4-{[5-({5-chloro-4-[(1S)-2,3,4,5-tetrahydro-1H-2-benzazepin-1-yl]-2-thienyl}carbonyl)pyrimidin-4-yl]amino}-2-hydroxycyclopentyl]methyl sulfamate]	–	–	–	94	< 10
NS(=O)(=O)OC[C@H]1C[C@@H](Nc2ncncc2C(=O)c2cc(C3NCCc4ccc(Cl)cc43)c(Cl)s2)C[C@@H]1O (single isomer, unassigned) [I-255b, [(1R,2S,4R)-4-{[5-({5-chloro-4-[(1R)-7-chloro-1,2,3,4-tetrahydroisoquinolin-1-yl]-2-thienyl}carbonyl)pyrimidin-4-yl]amino}-2-hydroxycyclopentyl]methyl sulfamate or [(1R,2S,4R)-4-{[5-({5-chloro-4-[(1S)-7-chloro-1,2,3,4-tetrahydroisoquinolin-1-yl-2-thienyl}carbonyl)pyrimidin-4-yl]amino}-2-hydroxycyclopentyl]methyl sulfamate]	100	< 10	–	–	–
CC(c1cccc(Cl)c1)c1csc(C(=O)c2cncnc2N[C@@H]2C[C@H](COS(N)(=O)=O)[C@@H](O)C2)c1 (single isomer, unassigned) [I-117a, [(1R,2S,4R)-4-{[5-({4-[(1S)-1-(3-chlorophenyl)ethyl]-2-thienyl}carbonyl)pyrimidin-4-yl]amino}-2-hydroxycyclopentyl]methyl sulfamate or [(1R,2S,4R)-4-{[5-({4-[(1R)-1-(3-chlorophenyl)ethyl]-2-thienyl}carbonyl)pyrimidin-4-yl]amino}-2-hydroxycyclopentyl]methyl sulfamate]	73	10 to 100	–	–	–
Cc1sc(C(=O)c2cncnc2N[C@@H]2C[C@H](COS(N)(=O)=O)[C@@H](O)C2)cc1[C@@H]1OCCc2ccc(Cl)c(F)c21 (mixture of isomers) [I-303, [(1R,2S,4R)-4-{[5-({4-[(1R)-7-chloro-8-fluoro-3,4-dihydro-1H-isochromen-1-yl]-5-methyl-2-thienyl}carbonyl)pyrimidin-4-yl]amino}-2-hydroxycyclopentyl]methyl sulfamate and [(1R,2S,4R)-4-{[5-({4-[(1S)-7-chloro-8-fluoro-3,4-dihydro-1H-isochromen-1-yl]-5-methyl-2-thienyl}carbonyl)pyrimidin-4-yl]amino}-2-hydroxycyclopentyl]methyl sulfamate]	–	–	–	99	< 10
NS(=O)(=O)OC[C@H]1C[C@@H](Nc2ncncc2C(=O)c2cc([C@@H]3OCCCc4ccc(Cl)cc43)cs2)C[C@@H]1O (single isomer, unassigned) [I-314a, [(1R,2S,4R)-4-{[5-({4-[(1R)-8-chloro-1,3,4,5-tetrahydro-2-benzoxepin-1-yl]-2-thienyl}carbonyl)pyrimidin-4-yl]amino}-2-hydroxycyclopentyl]methyl sulfamate or [(1R,2S,4R)-4-{[5-({4-[(1S)-8-chloro-1,3,4,5-tetrahydro-2-benzoxepin-1-yl]-2-thienyl}carbonyl)pyrimidin-4-yl]amino}-2-hydroxycyclopentyl]methyl sulfamate]	–	–	–	49	100 to 1000
NS(=O)(=O)OC[C@H]1C[C@@H](Nc2ncncc2C(=O)c2cc(Cc3cccc(I)c3)cs2)[C@@H](F)[C@@H]1O [I-99, {(1R,2R,3R,4R)-3-fluoro-2-hydroxy-4-[(5-{[4-(3-iodobenzyl)-2-thienyl]carbonyl}pyrimidin-4-yl)amino]cyclopentyl}methyl sulfamate]	–	< 10	97	–	–
NS(=O)(=O)OC[C@H]1C[C@@H](Nc2ncncc2C(=O)c2cc([C@@H]3SCCc4ccc(Cl)cc43)cs2)C[C@@H]1O.NS(=O)(=O)OC[C@H]1C[C@@H](Nc2ncncc2C(=O)c2cc([C@H]3SCCc4ccc(Cl)cc43)cs2)C[C@@H]1O (mixture of isomers) [I-320, [(1R,2S,4R)-4-{[5-({4-[(1R)-7-chloro-3,4-dihydro-1H-isothiochromen-1-yl]-2-thienyl}carbonyl)pyrimidin-4-yl]amino}-2-hydroxycyclopentyl]methyl sulfamate and [(1R,2S,4R)-4-{[5-({4-[(1S)-7-chloro-3,4-dihydro-1H-isothiochromen-1-yl]-2-thienyl}carbonyl)pyrimidin-4-yl]amino}-2-hydroxycyclopentyl]methyl sulfamate]	–	–	–	92	10 to 100
Cc1sc(C(=O)c2cncnc2N[C@@H]2C[C@H](COS(N)(=O)=O)[C@@H](O)C2)cc1Sc1cccc(C(F)(F)F)c1 [I-145, [(1R,2S,4R)-2-hydroxy-4-({5-[(5-methyl-4-{[3-(trifluoromethyl)phenyl]sulfanyl}-2-thienyl)carbonyl]pyrimidin-4-yl}amino)cyclopentyl]methyl sulfamate]	–	< 10	93	–	–
CC(C)(C)OC(=O)N1CCc2ccc(Cl)cc2[C@@H]1c1cc(C(=O)c2cncnc2N[C@@H]2C[C@H](COS(N)(=O)=O)[C@@H](O)C2)sc1Cl.CC(C)(C)OC(=O)N1CCc2ccc(Cl)cc2[C@H]1c1cc(C(=O)c2cncnc2N[C@@H]2C[C@H](COS(N)(=O)=O)[C@@H](O)C2)sc1Cl (mixture of isomers) [I-336, tert-butyl (1R)-7-chloro-1-(2-chloro-5-{[4-({(1R,3S,4R)-3-hydroxy-4-[(sulfamoyloxy)methyl]cyclopentyl}amino)pyrimidin-5-yl]carbonyl}-3-thienyl)-3,4-dihydroisoquinoline-2(1H)-carboxylate and tert-butyl (1S)-7-chloro-1-(2-chloro-5-{[4-({(1R,3S,4R)-3-hydroxy-4-[(sulfamoyloxy)methyl]cyclopentyl}amino)pyrimidin-5-yl]carbonyl}-3-thienyl)-3,4-dihydroisoquinoline-2(1H)-carboxylate]	–	–	–	15	100 to 1000
